Data on four compounds can be found in ChEMBL document CHEMBL5537119 (Eur J Med Chem, 2024).

The test system of assay [1] is THP-1. The experiment in a line: Effect on p21 protein expression in human THP-1 cells assessed as increase in p21 protein expression level at 7.9 uM incubated for 24 hrs by Western blot analysis. The format is functional, cell-based.
The subject of assay [2] is CAL-27. The experiment in a line: Antiproliferative activity against human CAL-27 cells without HDAC4 expression assessed as inhibition of cell growth incubated for 72 hrs by MTT assay. It counts as functional, cell-based. The settings on record: CAL-27, 72 h.
In assay [3] the test system is CAL-27. Kind of assay: Antiproliferative activity against human CAL-27 cells overexpressing HDAC4 assessed as inhibition of cell growth incubated for 72 hrs by MTT assay. The format is functional, cell-based. The settings on record: CAL-27, 72 h.
Assay [4] has as its system THP-1. Kind of assay: cells. As to conditions: Homo sapiens, THP-1, 72 h.
Description: Antiproliferative activity against human THP-1 cells assessed as inhibition of cell growth incubated for 72 hrs by MTT assay
A short description of assay [5]: Effect on p21 mRNA expression in human THP-1 cells assessed as fold increase in p21 mRNA expression at 7.9 uM incubated for 24 hrs by RT-PCR analysis. The format is functional.
Assay [6] has as its system THP-1. The experiment in a line: Synergistic effect on p21 protein expression in human THP-1 cells assessed as increase in p21 protein expression level at 5 uM incubated for 24 hrs in the presence of 7.9 nM bortezomib by Western blot analysis. It counts as functional, cell-based.
Assay [7] concerns THP-1. The experiment in a line: Synergistic induction of apoptosis in human THP-1 cells assessed as increase in subG1 population at 5 uM incubated for 48 hrs in the presence of 7.9 nM bortezomib by Propidium iodide staining based flow cytometric analysis. The format is functional, cell-based.
In assay [8] the test system is THP-1. Kind of assay: Induction of apoptosis in human THP-1 cells assessed as caspase3/7 activation at 5 uM incubated for 48 hrs by Hoechst 33342 staining based assay. It counts as functional, cell-based.
The test system of assay [9] is THP-1. The experiment in a line: Induction of apoptosis in human THP-1 cells assessed as subG1 population at 5 uM incubated for 48 hrs by Propidium iodide staining based flow cytometric analysis. The format is functional, cell-based.
For assay [10], the system named is THP-1. Kind of assay: Antiproliferative activity against human THP-1 cells assessed as reduction in cell viability at 100 uM incubated for 72 hrs by MTT assay relative to control. It counts as functional.
Assay [11] concerns THP-1. Kind of assay: Synergistic induction of apoptosis in human THP-1 cells assessed as increase in caspase3/7 activation at 5 uM incubated for 48 hrs in the presence of 7.9 nM bortezomib by Hoechst 33342 staining based assay. It counts as functional, cell-based.
Assay [12] relates to THP-1. The experiment in a line: Effect on p21 protein expression in human THP-1 cells assessed as increase in p21 protein expression level at 5 uM incubated for 24 hrs by Western blot analysis. The format is functional, cell-based.
The test system of assay [13] is THP-1. The experiment in a line: Inhibition of Class I/IIb HDAC in human THP-1 cells at 100 uM preincubated for 18 hrs followed by substrate addition and measured after 3 hrs by fluorescence based microplate reader assay relative to control. The settings on record: time 21.0 hrs. It counts as cell-based.
Assay [14] has as its system THP-1. Kind of assay: Synergistic induction of apoptosis in human THP-1 cells assessed as increase in subG1 population at 5.7 uM incubated for 48 hrs in the presence of 7.9 nM bortezomib by Propidium iodide staining based flow cytometric analysis. The format is functional, cell-based.
Assay [15] relates to THP-1. The experiment in a line: Induction of apoptosis in human THP-1 cells assessed as caspase3/7 activation at 5.7 uM incubated for 48 hrs by Hoechst 33342 staining based assay. It counts as functional, cell-based.
The nature of assay [16]: Inhibition of Class IIa/8 HDAC in human THP-1 cells preincubated for 18 hrs followed by substrate addition and measured after 3 hrs by fluorescence based microplate reader assay. It counts as cell-based.
The nature of assay [17]: Inhibition of Class I/IIb HDAC in human THP-1 cells preincubated for 18 hrs followed by substrate addition and measured after 3 hrs by fluorescence based microplate reader assay. The format is cell-based.
In assay [18] the test system is THP-1. The experiment in a line: Inhibition of Class IIa/8 HDAC in human THP-1 cells at 100 uM preincubated for 18 hrs followed by substrate addition and measured after 3 hrs by fluorescence based microplate reader assay relative to control. It counts as cell-based. As to conditions: time 21.0 hrs, values are per cent of control.
The next assay has as its target Histone deacetylase 1 (Homo sapiens, UniProt Q13547). Kind of assay: Inhibition of HDAC1 (unknown origin).
The next assay deals with Histone deacetylase 5 (Homo sapiens, UniProt Q9UQL6). The experiment in a line: Inhibition of HDAC5 (unknown origin).
Sequence of Histone deacetylase 5 (Q9UQL6 whole entry): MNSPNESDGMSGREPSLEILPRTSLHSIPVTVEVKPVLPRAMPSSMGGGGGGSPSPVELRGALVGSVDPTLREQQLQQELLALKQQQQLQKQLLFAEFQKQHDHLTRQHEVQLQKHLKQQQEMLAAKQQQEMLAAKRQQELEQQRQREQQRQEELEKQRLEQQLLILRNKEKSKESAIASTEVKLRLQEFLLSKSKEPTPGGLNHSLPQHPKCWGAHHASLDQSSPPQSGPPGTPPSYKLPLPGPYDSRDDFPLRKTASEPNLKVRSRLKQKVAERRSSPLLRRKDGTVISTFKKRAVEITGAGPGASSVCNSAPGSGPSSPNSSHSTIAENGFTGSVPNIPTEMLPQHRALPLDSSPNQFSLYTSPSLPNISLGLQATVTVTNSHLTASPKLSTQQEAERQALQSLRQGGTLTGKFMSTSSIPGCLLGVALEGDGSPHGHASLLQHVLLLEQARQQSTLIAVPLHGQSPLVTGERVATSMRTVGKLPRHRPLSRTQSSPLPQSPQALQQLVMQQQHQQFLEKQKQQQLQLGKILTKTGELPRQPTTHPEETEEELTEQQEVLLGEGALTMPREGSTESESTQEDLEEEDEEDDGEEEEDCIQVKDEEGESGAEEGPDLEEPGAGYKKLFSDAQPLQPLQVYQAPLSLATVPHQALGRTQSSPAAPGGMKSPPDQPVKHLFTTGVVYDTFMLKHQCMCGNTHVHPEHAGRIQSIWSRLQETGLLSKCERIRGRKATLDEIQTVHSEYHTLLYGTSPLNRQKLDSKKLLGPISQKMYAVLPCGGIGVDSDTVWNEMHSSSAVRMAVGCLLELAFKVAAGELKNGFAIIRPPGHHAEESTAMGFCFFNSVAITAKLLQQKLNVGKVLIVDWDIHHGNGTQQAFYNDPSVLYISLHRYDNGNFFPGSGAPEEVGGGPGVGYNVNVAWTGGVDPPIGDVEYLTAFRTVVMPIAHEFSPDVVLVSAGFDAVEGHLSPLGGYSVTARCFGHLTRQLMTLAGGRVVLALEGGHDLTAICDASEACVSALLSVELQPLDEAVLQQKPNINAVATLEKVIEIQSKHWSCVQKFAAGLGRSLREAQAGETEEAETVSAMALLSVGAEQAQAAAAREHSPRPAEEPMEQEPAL
For another assay, the target named is Histone deacetylase 3 (Homo sapiens, UniProt O15379). Kind of assay: Inhibition of HDAC3 (unknown origin).
Sequence of Histone deacetylase 3 (O15379 whole entry): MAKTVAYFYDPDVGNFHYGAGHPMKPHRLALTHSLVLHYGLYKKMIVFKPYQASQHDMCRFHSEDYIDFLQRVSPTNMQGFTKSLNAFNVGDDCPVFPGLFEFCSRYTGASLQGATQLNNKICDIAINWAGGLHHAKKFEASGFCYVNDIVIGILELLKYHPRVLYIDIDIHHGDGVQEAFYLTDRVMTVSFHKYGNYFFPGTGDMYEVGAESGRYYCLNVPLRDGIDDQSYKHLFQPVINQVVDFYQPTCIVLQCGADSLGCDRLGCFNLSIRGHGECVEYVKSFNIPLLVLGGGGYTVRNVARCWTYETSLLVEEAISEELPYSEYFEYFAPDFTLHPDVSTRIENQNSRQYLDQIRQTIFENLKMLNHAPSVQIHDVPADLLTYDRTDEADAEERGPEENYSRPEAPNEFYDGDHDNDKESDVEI
The target of another assay is T1, Histone deacetylase 11 (Homo sapiens, UniProt Q96DB2).
T1 sequence (Q96DB2 whole entry): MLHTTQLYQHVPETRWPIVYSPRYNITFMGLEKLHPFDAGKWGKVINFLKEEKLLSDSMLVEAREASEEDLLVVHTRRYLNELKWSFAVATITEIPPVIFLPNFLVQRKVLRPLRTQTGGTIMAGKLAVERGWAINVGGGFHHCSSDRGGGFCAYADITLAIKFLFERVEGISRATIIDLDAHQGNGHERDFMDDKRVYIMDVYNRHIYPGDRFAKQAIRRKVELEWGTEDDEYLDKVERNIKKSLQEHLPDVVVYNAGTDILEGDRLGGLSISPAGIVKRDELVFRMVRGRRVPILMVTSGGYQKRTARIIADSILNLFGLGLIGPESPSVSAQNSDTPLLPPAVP
The experiment in a line: Inhibition of HDAC11 (unknown origin).

The test system of assay [19] is THP-1. Kind of assay: Induction of apoptosis in human THP-1 cells assessed as subG1 population at 5.7 uM incubated for 48 hrs by Propidium iodide staining based flow cytometric analysis. It counts as functional, cell-based.
The subject of assay [20] is THP-1. Kind of assay: Synergistic induction of apoptosis in human THP-1 cells assessed as increase in caspase3/7 activation at 5.7 uM incubated for 48 hrs in the presence of 7.9 nM bortezomib by Hoechst 33342 staining based assay. The format is functional, cell-based.
For a further assay, the target named is Histone deacetylase 2 (Homo sapiens, UniProt Q92769). Kind of assay: Inhibition of human recombinant HDAC2 using Boc-Lys(Ac)-AMC as substrate preincubated for 5 mins followed by substrate addition and measured after 90 mins by fluorescence based microplate reader analysis.
Sequence of Histone deacetylase 2 (Q92769 whole entry): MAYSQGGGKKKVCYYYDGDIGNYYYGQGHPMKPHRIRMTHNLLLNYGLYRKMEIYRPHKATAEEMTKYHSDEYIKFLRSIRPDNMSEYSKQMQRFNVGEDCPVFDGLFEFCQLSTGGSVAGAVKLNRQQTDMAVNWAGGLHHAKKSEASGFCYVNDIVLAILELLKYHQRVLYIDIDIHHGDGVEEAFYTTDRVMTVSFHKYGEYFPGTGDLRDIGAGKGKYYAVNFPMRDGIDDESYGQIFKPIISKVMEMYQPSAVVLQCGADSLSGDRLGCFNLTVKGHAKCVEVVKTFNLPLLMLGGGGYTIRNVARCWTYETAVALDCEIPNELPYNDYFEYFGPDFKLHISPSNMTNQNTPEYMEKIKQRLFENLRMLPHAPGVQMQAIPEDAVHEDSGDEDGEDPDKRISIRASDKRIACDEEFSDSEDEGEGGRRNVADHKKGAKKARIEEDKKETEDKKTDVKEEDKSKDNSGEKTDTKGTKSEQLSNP
Assay [21] addresses T2, Protein deacetylase HDAC6 (Homo sapiens, UniProt Q9UBN7).
T2 sequence (Q9UBN7 whole entry): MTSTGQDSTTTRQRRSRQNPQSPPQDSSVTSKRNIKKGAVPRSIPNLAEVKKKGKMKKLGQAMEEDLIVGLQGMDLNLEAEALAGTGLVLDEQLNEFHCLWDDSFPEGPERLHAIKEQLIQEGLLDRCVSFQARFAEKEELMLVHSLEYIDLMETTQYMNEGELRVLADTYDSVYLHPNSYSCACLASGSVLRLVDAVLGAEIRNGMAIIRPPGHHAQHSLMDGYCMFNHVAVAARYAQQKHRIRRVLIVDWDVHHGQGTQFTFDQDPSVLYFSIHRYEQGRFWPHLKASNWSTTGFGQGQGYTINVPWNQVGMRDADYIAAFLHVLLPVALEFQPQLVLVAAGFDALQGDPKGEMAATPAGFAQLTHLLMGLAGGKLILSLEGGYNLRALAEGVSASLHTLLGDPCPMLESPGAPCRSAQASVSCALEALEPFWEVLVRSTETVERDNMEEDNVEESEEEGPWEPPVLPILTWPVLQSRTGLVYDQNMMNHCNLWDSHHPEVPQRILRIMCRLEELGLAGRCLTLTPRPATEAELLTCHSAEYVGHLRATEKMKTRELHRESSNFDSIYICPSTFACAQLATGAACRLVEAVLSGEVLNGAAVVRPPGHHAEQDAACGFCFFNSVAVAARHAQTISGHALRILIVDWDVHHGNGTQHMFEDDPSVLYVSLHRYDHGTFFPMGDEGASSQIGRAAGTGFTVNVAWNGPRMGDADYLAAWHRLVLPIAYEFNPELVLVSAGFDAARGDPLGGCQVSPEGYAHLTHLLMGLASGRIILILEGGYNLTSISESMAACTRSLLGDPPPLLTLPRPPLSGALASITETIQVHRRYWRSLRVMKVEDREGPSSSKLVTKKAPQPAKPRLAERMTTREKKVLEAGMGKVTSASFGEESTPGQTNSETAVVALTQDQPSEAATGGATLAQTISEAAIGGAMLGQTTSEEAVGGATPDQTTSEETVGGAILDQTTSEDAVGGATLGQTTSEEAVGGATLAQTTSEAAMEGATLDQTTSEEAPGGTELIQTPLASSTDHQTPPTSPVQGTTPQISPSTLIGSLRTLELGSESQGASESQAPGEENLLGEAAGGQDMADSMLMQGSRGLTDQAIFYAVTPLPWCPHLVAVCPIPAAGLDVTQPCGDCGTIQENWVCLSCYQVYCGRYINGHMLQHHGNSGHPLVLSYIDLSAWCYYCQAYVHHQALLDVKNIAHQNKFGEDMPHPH
Kind of assay: Inhibition of human recombinant HDAC6 using Boc-Lys(Ac)-AMC as substrate preincubated for 5 mins followed by substrate addition and measured after 90 mins by fluorescence based microplate reader analysis.

The subject of assay [22] is CAL-27. Kind of assay: Antitumor activity against human CAL-27 cells overexpressing HDAC4 implanted in chick embryo chorio allantoic membrane assessed as reduction in cell proliferation at 5 uM. The format is functional, cell-based.
For assay [23], the system named is CAL-27. The experiment in a line: Antitumor activity against human CAL-27 cells without HDAC4 expression xenografted in chick embryo chorio allantoic membrane assessed as reduction in cell proliferation at 5 uM. It counts as functional, cell-based.
The target of a further assay is Histone deacetylase 4 (Homo sapiens, UniProt P56524). The experiment in a line: Inhibition of GST-tagged HDAC4 (unknown origin).
Sequence of Histone deacetylase 4 (P56524 whole entry): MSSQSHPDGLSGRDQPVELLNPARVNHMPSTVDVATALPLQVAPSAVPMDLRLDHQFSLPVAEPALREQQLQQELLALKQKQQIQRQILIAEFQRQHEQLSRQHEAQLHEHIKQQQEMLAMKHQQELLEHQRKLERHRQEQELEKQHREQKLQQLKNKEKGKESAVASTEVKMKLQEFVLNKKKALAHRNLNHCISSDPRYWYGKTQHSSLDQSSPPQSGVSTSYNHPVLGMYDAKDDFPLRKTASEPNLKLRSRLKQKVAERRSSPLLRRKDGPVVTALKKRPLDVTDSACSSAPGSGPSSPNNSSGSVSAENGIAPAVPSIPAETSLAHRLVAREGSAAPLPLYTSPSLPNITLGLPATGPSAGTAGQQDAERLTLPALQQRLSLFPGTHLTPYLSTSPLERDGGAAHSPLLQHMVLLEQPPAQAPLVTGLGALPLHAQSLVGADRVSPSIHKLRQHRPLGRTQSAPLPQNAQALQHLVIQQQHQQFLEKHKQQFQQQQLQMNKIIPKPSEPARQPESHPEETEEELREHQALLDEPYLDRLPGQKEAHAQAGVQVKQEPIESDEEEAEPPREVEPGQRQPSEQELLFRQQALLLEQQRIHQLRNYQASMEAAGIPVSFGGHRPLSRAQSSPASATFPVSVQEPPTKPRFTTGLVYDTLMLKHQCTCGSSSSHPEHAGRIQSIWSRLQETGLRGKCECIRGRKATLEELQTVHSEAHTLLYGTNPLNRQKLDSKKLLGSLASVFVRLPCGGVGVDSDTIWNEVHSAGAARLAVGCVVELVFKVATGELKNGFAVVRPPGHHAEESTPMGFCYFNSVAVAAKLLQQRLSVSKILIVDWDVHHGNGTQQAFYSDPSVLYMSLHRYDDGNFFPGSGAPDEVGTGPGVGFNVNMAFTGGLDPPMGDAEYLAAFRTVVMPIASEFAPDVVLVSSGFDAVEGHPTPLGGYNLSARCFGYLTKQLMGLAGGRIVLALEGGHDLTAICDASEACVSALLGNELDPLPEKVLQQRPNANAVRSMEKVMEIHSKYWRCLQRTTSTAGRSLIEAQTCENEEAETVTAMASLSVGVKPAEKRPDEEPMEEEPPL
The next assay addresses T3, Histone deacetylase 8 (Homo sapiens, UniProt Q9BY41).
T3 sequence (Q9BY41 whole entry): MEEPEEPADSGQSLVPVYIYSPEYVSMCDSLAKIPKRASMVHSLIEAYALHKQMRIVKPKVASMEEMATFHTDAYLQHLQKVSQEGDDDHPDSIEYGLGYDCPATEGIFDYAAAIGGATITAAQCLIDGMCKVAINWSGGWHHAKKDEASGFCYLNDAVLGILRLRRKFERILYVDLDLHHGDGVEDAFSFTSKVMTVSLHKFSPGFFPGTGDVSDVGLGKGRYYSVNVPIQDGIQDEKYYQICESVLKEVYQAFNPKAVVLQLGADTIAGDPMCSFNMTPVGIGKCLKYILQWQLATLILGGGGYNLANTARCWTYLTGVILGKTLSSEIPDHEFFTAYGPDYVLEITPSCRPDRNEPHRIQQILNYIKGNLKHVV
The experiment in a line: Inhibition of human recombinant HDAC8 using Boc-Lys-(Tfa)-AMC as substrate preincubated for 5 mins followed by substrate addition and measured after 90 mins by fluorescence based microplate reader analysis.

Calls of active or inactive are those of the source. The calls are words filed in the database; no cut-off is given here.

Sequence of Histone deacetylase 1 (Q13547 whole entry): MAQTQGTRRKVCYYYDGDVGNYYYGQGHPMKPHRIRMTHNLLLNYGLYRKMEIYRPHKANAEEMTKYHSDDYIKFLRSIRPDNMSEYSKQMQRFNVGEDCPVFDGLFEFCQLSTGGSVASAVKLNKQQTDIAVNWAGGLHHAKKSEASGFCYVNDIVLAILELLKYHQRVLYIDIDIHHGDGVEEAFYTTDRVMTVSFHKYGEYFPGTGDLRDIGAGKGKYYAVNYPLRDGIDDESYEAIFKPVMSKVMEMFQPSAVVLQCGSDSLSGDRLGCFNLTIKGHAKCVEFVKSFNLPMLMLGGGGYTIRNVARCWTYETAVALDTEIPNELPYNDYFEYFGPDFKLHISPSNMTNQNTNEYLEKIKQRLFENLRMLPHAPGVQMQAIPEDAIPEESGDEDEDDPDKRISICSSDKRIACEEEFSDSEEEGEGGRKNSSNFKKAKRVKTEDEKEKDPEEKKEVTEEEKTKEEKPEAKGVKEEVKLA

In the case of `CC(C)C[C@H](NC(=O)[C@H](Cc1ccccc1)NC(=O)c1cnccn1)B(O)O` [BORTEZOMIB], the result with THP-1 [1] was Active. Also, the values for the IC50 with CAL-27 [2], with CAL-27 [3] and in the assay with THP-1 [4] were 7.6 µM, 4.73 µM and 0.00628 µM, respectively. In addition, the “fold change (FC)” value in [5] was determined as 2.5.

With `O=C(NCC1(c2nc(-c3ccccc3)cs2)CCOCC1)c1cccc(-c2noc(C(F)(F)F)n2)c1`, the outcome in the assay on THP-1 [6], in the assay on THP-1 [7], in the assay with THP-1 [11] and in the assay on THP-1 [12] was Active. Also, the outcome in the assay on THP-1 [8] and with THP-1 [9] was inactive. In the assay with THP-1 [10], the Activity worked out at 100%.

Consider `O=C(NOCCN1CCCCC1)c1ccc(-c2noc(C(F)(F)F)n2)cc1`, for which, in the assay with THP-1 [13], the inhibition was 70%. Further, the outcome in the assay on THP-1 [14] and in the assay on THP-1 [20] was Active. For the same compound, the result in the assay on THP-1 [15] and with THP-1 [19] was inactive. Moreover, the IC50 is 0.59 µM in assay [16]; 64.2 µM in [17]; 77.7 µM in the assay with CAL-27 [2]; 20.7 µM at Histone deacetylase 1; 69.8 µM in the assay with CAL-27 [3]; around 100 µM with THP-1 [4]. Further, the IC50 was 0.268 µM against Histone deacetylase 5, 15 µM against Histone deacetylase 3 and above 100 µM against Histone deacetylase 11. Further, in the assay with THP-1 [10], the Activity was determined as 45%. The residual activity in the assay on THP-1 [18] was 101%.

Turning to `CCN(CC)CCNC(=O)c1ccc(-c2noc(C(F)(F)F)n2)cc1`, the inhibition in the assay on THP-1 [13] turned out to be 93%. For the same compound, the IC50 on Histone deacetylase 2 is 6.13 µM; in assay [21], 5.79 µM; in assay [16], 0.077 µM; in assay [17] it was 10.9 µM; with CAL-27 [2], 22.5 µM; against Histone deacetylase 4 it was 0.017 µM. Moreover, the IC50 at Histone deacetylase 8 is 4.26 µM; in the assay on CAL-27 [3], 8.63 µM; in the assay with THP-1 [4], 9.24 µM; against Histone deacetylase 5 it was 0.019 µM; at Histone deacetylase 3, 3.82 µM; on Histone deacetylase 11, 66 µM. Also, the result in the assay with THP-1 [6], in the assay with THP-1 [7], in the assay on CAL-27 [22], in the assay with CAL-27 [23], in the assay on THP-1 [11] and in the assay with THP-1 [12] was Active. In addition, the result in the assay on THP-1 [8] and in the assay on THP-1 [9] was inactive. In addition, the Activity with THP-1 [10] was determined as 80%. Besides, the residual activity in the assay with THP-1 [18] worked out at 100%.
